Data from ChEMBL document CHEMBL4831486, “Design, synthesis and biological evaluation of pleuromutilin-Schiff base hybrids as potent anti-MRSA agents in vitro and in vivo” (Eur J Med Chem, 2021).
Values after ≈ are worked out from the molar mass of the structure shown.

How the values were obtained:
Staphylococcus aureus [1] = assay: Bactericidal activity against Staphylococcus aureus AD3 assessed as inhibition of bacterial growth measured after 96 hrs by broth dilution method; assay type: functional
Staphylococcus aureus [2] = assay: Antibacterial activity against Staphylococcus aureus AD3 assessed as inhibition of bacterial growth measured after 24 hrs by broth dilution method; assay type: functional
Escherichia coli [3] = assay: Antibacterial activity against Escherichia coli ATCC 25922 assessed as inhibition of bacterial growth measured after 24 hrs by broth dilution method; assay type: functional
Staphylococcus aureus [4] = assay: Antibacterial activity against Staphylococcus aureus 144 assessed as inhibition of bacterial growth measured after 24 hrs by broth dilution method; assay type: functional
RAW264.7 [5] = assay: Cytotoxicity against mouse RAW264.7 cells assessed as reduced cell viability at 4 ug/ml measured after 16 hrs by MTT assay; assay type: cell-based; details: raw264.7, 16 h, dose 4 µg/ml
HepG2 = assay: Cytotoxicity against human HepG2 cells assessed as reduced cell viability at 4 ug/ml measured after 16 hrs by MTT assay; assay type: cell-based; details: hepg2, 16 h, dose 4 µg/ml
Staphylococcus aureus [6] = assay: Bactericidal activity against Staphylococcus aureus ATCC 29213 assessed as inhibition of bacterial growth measured after 96 hrs by broth dilution method; assay type: functional
Staphylococcus aureus [7] = assay: Antibacterial activity against Methycillin-resistant Staphylococcus aureus ATCC 43300 assessed as inhibition of bacterial growth measured after 24 hrs by broth dilution method; assay type: functional
Staphylococcus aureus [8] = assay: Antibacterial activity against Staphylococcus aureus ATCC 29213 assessed as inhibition of bacterial growth measured after 24 hrs by broth dilution method; assay type: functional
Escherichia coli [9] = assay: Bactericidal activity against Escherichia coli ATCC 25922 assessed as inhibition of bacterial growth measured after 96 hrs by broth dilution method; assay type: functional
Staphylococcus aureus [10] = assay: Bactericidal activity against Methycillin-resistant Staphylococcus aureus ATCC 43300 assessed as inhibition of bacterial growth measured after 96 hrs by broth dilution method; assay type: functional
Staphylococcus aureus [11] = assay: Bactericidal activity against Staphylococcus aureus 144 assessed as inhibition of bacterial growth measured after 96 hrs by broth dilution method; assay type: functional
Staphylococcus aureus [12] = assay: Bactericidal activity against methicillin-resistant Staphylococcus aureus ATCC 43300 assessed as reduction in bacterial growth at 2X MIC measured for 24 hrs by time kill assay; assay type: functional; design: scale not given: the % may be the effect or the level left
Staphylococcus aureus [13] = assay: (§1) Antibacterial activity against methicillin-resistant Staphylococcus aureus ATCC 43300 assessed as post antibiotic effect by measuring time required for increase in 1 log10 CFU/ml of bacteria at 4X MIC incubated for 2 hrs followed by compound washout and measured after 20 hrs by time-kill assay (reference value: 2.04 hrs); assay type: functional
Staphylococcus aureus [14] = assay: Antibacterial activity against methicillin-resistant Staphylococcus aureus ATCC 43300 infected in neutropenic CD1 mouse model of thigh infection assessed as reduction in bacterial colony forming unit in thigh at 20 mg/kg, iv qd measured after 24 hrs relative to control; assay type: functional
Staphylococcus aureus [15] = assay: as §1, with “2X” for “4X”; assay type: functional
Staphylococcus aureus [16] = assay: Antibacterial activity against methicillin-resistant Staphylococcus aureus ATCC 43300 assessed as inhibition of bacterial growth measured after 8 passages at sub-MIC concentration incubated for 24 hrs by resistant development assay; assay type: functional
RAW264.7 [17] = assay: Cytotoxicity against mouse RAW264.7 cells assessed as reduced cell viability at 4 ug/ml measured after 16 hrs by MTT assay relative to control; assay type: cell-based; details: raw264.7, 16 h, at 4 µg/mL
Staphylococcus aureus [18] = assay: as §1, with “2.51” for “2.04”; assay type: functional
Staphylococcus aureus [19] = assay: as §1, with “2X” for “4X”, “2.51” for “2.04”; assay type: functional
Staphylococcus aureus [20] = assay: Bactericidal activity against methicillin-resistant Staphylococcus aureus ATCC 43300 assessed as reduction in bacterial growth at 4X MIC measured for 24 hrs by time kill assay; assay type: functional; design: scale not given: the % may be the effect or the level left
Staphylococcus aureus [21] = assay: as §1, with “2.44” for “2.04”; assay type: functional
Staphylococcus aureus [22] = assay: as §1, with “2X” for “4X”, “2.44” for “2.04”; assay type: functional

SMILES | MBC (Staphylococcus aureus [1]) | MIC (Staphylococcus aureus [2]) | MIC (Escherichia coli [3]) | MIC (Staphylococcus aureus [4]) | Activity (RAW264.7 [5]) | Activity (HepG2) | MBC (Staphylococcus aureus [6]) | MIC (Staphylococcus aureus [7]) | MIC (Staphylococcus aureus [8]) | MBC (Escherichia coli [9]) | MBC (Staphylococcus aureus [10]) | MBC (Staphylococcus aureus [11]) | other results
C=C[C@]1(C)C[C@@H](OC(=O)CSc2nnc(C)n2/N=C/c2ccc(N3CCOCC3)cc2)[C@]2(C)[C@H](C)CC[C@]3(CCC(=O)[C@H]32)[C@@H](C)[C@@H]1O | 4 µg/mL (≈ 6.03 µM) | 1 µg/mL (≈ 1.51 µM) | > 64 µg/mL | 2 µg/mL (≈ 3.01 µM) | Non-Toxic | Non-Toxic | 2 µg/mL (≈ 3.01 µM) | 0.5 µg/mL (≈ 0.753 µM) | 1 µg/mL (≈ 1.51 µM) | > 64 µg/mL | 1 µg/mL (≈ 1.51 µM) | 4 µg/mL (≈ 6.03 µM) | 
C=C[C@]1(C)C[C@@H](OC(=O)CSc2nnc(C)n2/N=C/c2ccc(-c3ccccn3)cc2)[C@]2(C)[C@H](C)CC[C@]3(CCC(=O)[C@H]32)[C@@H](C)[C@@H]1O | 2 µg/mL (≈ 3.05 µM) | 0.5 µg/mL (≈ 0.762 µM) | > 64 µg/mL | 1 µg/mL (≈ 1.52 µM) | Non-Toxic | Non-Toxic | 1 µg/mL (≈ 1.52 µM) | 0.25 µg/mL (≈ 0.381 µM) | 0.5 µg/mL (≈ 0.762 µM) | > 64 µg/mL | 1 µg/mL (≈ 1.52 µM) | 4 µg/mL (≈ 6.1 µM) | Activity (Staphylococcus aureus [12]): 99.9%; Time (Staphylococcus aureus [13]): 4.27 h; Activity (Staphylococcus aureus [14]): -2.28 log10CFU/ml; Time (Staphylococcus aureus [15]): 4.06 h; MIC (Staphylococcus aureus [16]): 2 µg/mL (≈ 3.05 µM)
C=C[C@]1(C)C[C@@H](OC(=O)CSc2nnc(C)n2/N=C/c2ccc(N3CCCC3)cc2)[C@]2(C)[C@H](C)CC[C@]3(CCC(=O)[C@H]32)[C@@H](C)[C@@H]1O | 4 µg/mL (≈ 6.17 µM) | 2 µg/mL (≈ 3.09 µM) | > 64 µg/mL | 2 µg/mL (≈ 3.09 µM) | Non-Toxic | Non-Toxic | 4 µg/mL (≈ 6.17 µM) | 1 µg/mL (≈ 1.54 µM) | 2 µg/mL (≈ 3.09 µM) | > 64 µg/mL | 2 µg/mL (≈ 3.09 µM) | 4 µg/mL (≈ 6.17 µM) | 
C=C[C@]1(C)C[C@@H](OC(=O)CSc2nnc(C)n2/N=C/c2ccc(N(C)C)cc2)[C@]2(C)[C@H](C)CC[C@]3(CCC(=O)[C@H]32)[C@@H](C)[C@@H]1O | 4 µg/mL (≈ 6.43 µM) | 1 µg/mL (≈ 1.61 µM) | > 64 µg/mL | 2 µg/mL (≈ 3.22 µM) | Non-Toxic | Non-Toxic | 2 µg/mL (≈ 3.22 µM) | 0.5 µg/mL (≈ 0.804 µM) | 0.5 µg/mL (≈ 0.804 µM) | > 64 µg/mL | 1 µg/mL (≈ 1.61 µM) | 4 µg/mL (≈ 6.43 µM) | 
C=C[C@]1(C)C[C@@H](OC(=O)CSc2nnc(C)n2/N=C/c2ccc(C)cc2)[C@]2(C)[C@H](C)CC[C@]3(CCC(=O)[C@H]32)[C@@H](C)[C@@H]1O | 4 µg/mL (≈ 6.75 µM) | 1 µg/mL (≈ 1.69 µM) | > 64 µg/mL | 2 µg/mL (≈ 3.37 µM) |  | Non-Toxic | 2 µg/mL (≈ 3.37 µM) | 0.5 µg/mL (≈ 0.843 µM) | 1 µg/mL (≈ 1.69 µM) | > 64 µg/mL | 1 µg/mL (≈ 1.69 µM) | 4 µg/mL (≈ 6.75 µM) | Activity (RAW264.7 [17]): 30%
C=C[C@]1(C)C[C@@H](OC(=O)CSc2nnc(C)n2/N=C/c2ccc(O)cc2)[C@]2(C)[C@H](C)CC[C@]3(CCC(=O)[C@H]32)[C@@H](C)[C@@H]1O | 2 µg/mL (≈ 3.36 µM) | 0.5 µg/mL (≈ 0.841 µM) | > 64 µg/mL | 1 µg/mL (≈ 1.68 µM) | Non-Toxic | Non-Toxic | 2 µg/mL (≈ 3.36 µM) | 0.25 µg/mL (≈ 0.42 µM) | 0.5 µg/mL (≈ 0.841 µM) | > 64 µg/mL | 1 µg/mL (≈ 1.68 µM) | 2 µg/mL (≈ 3.36 µM) | Time (Staphylococcus aureus [18]): 3.22 h; Time (Staphylococcus aureus [19]): 2.55 h; Activity (Staphylococcus aureus [20]): 99.9%
C=C[C@]1(C)C[C@@H](OC(=O)CSc2nnc(C)n2/N=C/c2ccc(N(CC)CC)cc2)[C@]2(C)[C@H](C)CC[C@]3(CCC(=O)[C@H]32)[C@@H](C)[C@@H]1O | 16 µg/mL (≈ 24.6 µM) | 4 µg/mL (≈ 6.15 µM) | > 64 µg/mL | 4 µg/mL (≈ 6.15 µM) | Non-Toxic | Non-Toxic | 8 µg/mL (≈ 12.3 µM) | 4 µg/mL (≈ 6.15 µM) | 4 µg/mL (≈ 6.15 µM) | > 64 µg/mL | 4 µg/mL (≈ 6.15 µM) | 8 µg/mL (≈ 12.3 µM) | 
C=C[C@]1(C)C[C@@H](OC(=O)CSCCN(CC)CC)[C@]2(C)[C@H](C)CC[C@]3(CCC(=O)[C@H]32)[C@@H](C)[C@@H]1O [TIAMULIN] | 2 µg/mL (≈ 4.05 µM) | 1 µg/mL (≈ 2.03 µM) | > 64 µg/mL | 1 µg/mL (≈ 2.03 µM) |  |  | 1 µg/mL (≈ 2.03 µM) | 0.5 µg/mL (≈ 1.01 µM) | 1 µg/mL (≈ 2.03 µM) | > 64 µg/mL | 1 µg/mL (≈ 2.03 µM) | 2 µg/mL (≈ 4.05 µM) | Time (Staphylococcus aureus [21]): 2.14 h; Time (Staphylococcus aureus [22]): 1.72 h; Activity (Staphylococcus aureus [14]): -1.4 log10CFU/ml; MIC (Staphylococcus aureus [16]): 32 µg/mL (≈ 64.8 µM)
